# Data published in US20080113900A1, “Pharmaceutical compositions and therapeutic applications for the use of a synthetic vitamin B12 derivative, glutathionylcobalamin” (priority 2006, published 2008).
# Where “and” joins values, the source holds several entries; their conditions need not be identical. Identical values can stand only once.
# Experiments:
# SK-HEP-1 cells [1] = assay: Protection of endothelial cells from homocysteine-induced cell death (MTS assay); type: cell-based, human
# SK-HEP-1 cells [2] = assay: Protection of endothelial cells from H2O2-induced cell death (MTS assay); type: cell-based, human; set-up: key to Cell viability (MTS assay): cell viability as % survival; details: for Cell viability (MTS assay): SK-HEP-1, n = 6 replicates
# Jurkat (T-cells) = assay: Survival of Jurkat cells at variable concentration of Hcy; type: cell-based; details: NACCbl 30 μM, NAC 75 μM, CNCbl 15 μM, folate 30 μM
# Procedure: (§1) Additional cell studies were conducted using Jurkat (T-cells) and U937 (monocyte) cell lines. These experiments confirmed that other cell types are killed by homocysteine, although these cell lines are not as sensitive as the SK-HEP-1 cell line discussed in the experiments above and are thus more resistant to homocysteine. Cells were exposed to NACCbl 30 μM, NAC 75 μM, CNCbl 15 μM, and folate 30 μM. […] In these Figures, the monocytes are N=6 and concentrations are as follows: NACCbl 30 μM, NAC 75 μM, CNCbl 15 μM, Folate 30 μM
# SK-HEP-1 cells [3] = assay: Protection from homocysteine-induced apoptosis, Caspase-3 activity (apoptosis assay); type: cell-based, human; details: 30 μM two hours, then 30 μM homocysteine two hours
# Procedure: Caspase 3 is activated when cells undergo apoptosis. Caspase-3 assay is a standard for apoptosis assay. Homocysteine is a known inducer of apoptosis. Cells were cultured in 96-well plates for 24 hours and then treated with reagents under test conditions. Cytotoxic agents, H2O2 and etoposide were added to negative control wells. The assay was performed according to the manufacturer's protocol, as follows: Cells were re-suspended in 100 μl of clear media and 50 μl of Caspase-3 substrate solution was immediately added to each test well. […] Cell viability was determined by MTS® assay. […] Cell viability was determined by MTS® assay.
# [4] = Decomposition in PBS at 37° C. monitored by UV/Vis spectrophotometry; type: physicochemical
# Procedure: The decomposition of GSCbl, NACCbl, and HcyCbl in PBS at 37° C. was monitored by UV/Vis spectrophotometry.
# SK-HEP-1 cells [5] = assay: Protection of endothelial cells from H2O2-induced cell death (MTS assay); type: cell-based, human; set-up: key to Cell viability (MTS assay): cell viability as % survival; details: for Cell viability (MTS assay): SK-HEP-1, n = 6 replicates; remark: listed apart in the source
# Procedure: The effect of increasing concentrations of NACCbl and GSCbl to protect endothelial cells from the effect of H2O2 was assessed. […] Cell viability was determined by MTS® assay. […] FIG. 3 illustrates that NACCbl and GSCbl protect endothelial cells from the effect of H2O2. […] Cell viability was determined by MTS® assay. […] There was no difference between the protection afforded by NACCbl and that by GSCbl. Both required 100 μM to achieve >80% survival.
# SK-HEP-1 cells [6] = assay: Effect of high concentrations of NACCbl and GSCbl on SK-HEP-1 cells (MTS assay, 24 hours); type: cell-based, human; details: for Cell viability by MTS assay (FIG. 13): SK-HEP-1, 3 replicates
# Hsp32 = Hsp32 gene expression (RT-PCR, densitometry); type: cell-based, human; details: SK-HEP-1; Sn (IX) protoporphyrin 25 μM; Quercitin 15 μM
# Procedure: Cells were plated into 6-, 12-, or 24-well cell culture clusters, at 2×10^3, 2×10^5, or 1×10^5 cells per well and incubated until 90% confluent. Treatments were applied as above.
# Following incubation, cells were subjected to mRNA extraction followed by cDNA synthesis for each sample under test. Polymerase chain reaction cDNA templates were prepared for simplex PCR protocol. PCR products were then visualized using a UV Transilluminator and images captured using a Kodak ID gel imaging system. Densitometry and statistical analysis was then performed on each gene expression band image using PSP® v 10.0 running under Windows XP®.
# mRNA extraction was performed using the Quickprep micro mRNA Purification Kit. Following incubation of cells post-treatment, the media was removed from the cells, adherent cells were re-suspended in 0.4 ml extraction buffer and 0.8 ml elution buffer at 65° C. was added.
# A reaction mixture was prepared in individual microcentrifuge tubes containing 2 cDNA synthesis beads, 32 μl of the mRNA solution and 1 μl of pd(N)6. This mixture was incubated at 37° C. in a water bath for 60 minutes. After incubation, 27 μl of RNase-free DEPC treated water was added to each tube to make a total volume 60 μl. cDNA samples were prepared in duplicate. Sample 1 was used immediately in RT-PCR protocol. Sample 2 was prepared for qPCR protocol by the addition of 150 μl of 95% ice-cold ethanol and stored at −20° C.
# Microcentrifuge tubes from puReTaq™Ready-To-Go™ PCR Beads containing one PCR bead were labeled for each sample required. Added to the PCR bead were 17 μl of RNase-free DEPC treated water, 1 μl sense primer, 1 μl anti-sense primer and 5 μl of the cDNA solution. RT-PCR conditions were as follows: Hsp70 and β-actin, pre-treatment step, 94° C. for 1 minute, followed by denaturing at 92° C. for 1 minute, annealing at 60° C. for 1 minute and extension at 72° C. for 1 minute. Total cycles, 30, post-treatment was then carried out at 72° C. for 10 minutes. For Hsp32, pre-treatment step, 95° C. for 2 minutes, followed by denaturing at 94° C. for 30 seconds, annealing at 58° C. for 1 minute and extension at 72° C. for 1 minute. Total cycles 45, post treatment was then carried out at 72° C. for 10 minutes. Following RT-PCR, samples were stored at −20° C.
# Gels were visualised on a UV Transilluminator. Photographs were stored using a Kodak Digital camera system fitted with a UV filter set connected to a PC. Images were then transferred to the Kodak ID gel imaging system. Densitometry was performed on each gene expression band using PSP™ v10 running under Windows XP®.
# Experiments were conducted using Hsp32 and Hsp 70 gene expression as the basis for study. […] The densitometric data are presented as means ±SEM of n=3 separate experiments. *p<0.05 or **p<0.01, treatment vs. control.
# U937 (monocytes) = assay: Survival of U937 cells at variable concentration of Hcy; type: cell-based; details: NACCbl 30 μM, NAC 75 μM, CNCbl 15 μM, folate 30 μM
# Procedure: as §1
# [7] = 2 hours, then 25 μM H2O2 24 hours
compound,measurement,setting,value
"CC(=O)NC(C[S-])C(=O)O.CC1=C2N=C(C=C3N=C(C(C)=C4[N-]C(C(CC(N)=O)C4(C)CCC(=O)NCC(C)OP(=O)([O-])OC4C(CO)OC(n5cnc6cc(C)c(C)cc65)C4O)C4(C)N=C1C(CCC(N)=O)C4(C)CC(N)=O)C(CCC(N)=O)C3(C)C)C(CCC(N)=O)C2(C)CC(N)=O.[Co+3] [NACCbl, N-acetyl-L-cysteinylcobalamin]",Protection from homocysteine-induced cell death,"SK-HEP-1 cells [1]; pre-incubation 30 μM two hours, variable homocysteine two hours",protected cells from homocysteine-induced cell death
same,Survival,"SK-HEP-1 cells [1]; ≧12.5 μM NACCbl, then 30 μM homocysteine 24 hours",80%
same,Survival,"SK-HEP-1 cells [2]; NACCbl 30 μM, above 25 μM H2O2",below 60%
same,Cell viability (MTS assay),"SK-HEP-1 cells [2]; compound 30 μM two hours, then H2O2 0 μM",102.9844 and 100.8053 and 103.2212 and 107.9583 and 101.8948 and 98.44
same,Cell viability (MTS assay),"SK-HEP-1 cells [2]; compound 30 μM two hours, then H2O2 0.781 μM a further two hours",93.46 and 102.7949 and 99.24 and 101.3738 and 103.2686 and 95.45
same,Cell viability (MTS assay),"SK-HEP-1 cells [2]; compound 30 μM two hours, then H2O2 1.56 μM a further two hours",98.53 and 91.38 and 98.72 and 100.1421 and 89.77 and 96.12
same,Cell viability (MTS assay),"SK-HEP-1 cells [2]; compound 30 μM two hours, then H2O2 3.125 μM a further two hours",88.2 and 93.18 and 92.89 and 99.76 and 92.42 and 91.8
same,Cell viability (MTS assay),"SK-HEP-1 cells [2]; compound 30 μM two hours, then H2O2 6.25 μM a further two hours",88.2 and 87.59 and 82.14 and 81.57 and 78.07 and 77.12
same,Cell viability (MTS assay),"SK-HEP-1 cells [2]; compound 30 μM two hours, then H2O2 12.5 μM a further two hours",77.17 and 76.98 and 76.6 and 67.12 and 77.6883 and 74.14
same,Cell viability (MTS assay),"SK-HEP-1 cells [2]; compound 30 μM two hours, then H2O2 25 μM a further two hours",67.12 and 66.75 and 61.87 and 56.18 and 55.3766 and 55.95
same,Cell viability (MTS assay),"SK-HEP-1 cells [2]; compound 30 μM two hours, then H2O2 50 μM a further two hours",50.21 and 48.27 and 44.955 and 45.71 and 48.18 and 44.58
same,Cell viability (MTS assay),"SK-HEP-1 cells [2]; compound 30 μM two hours, then H2O2 100 μM a further two hours",29.99 and 23.97 and 19.56 and 18.901 and 17.53 and 20.89
same,Cell viability (MTS assay),"SK-HEP-1 cells [2]; compound concentration 1.562, 2 hours, then 25 μM H2O2 24 hours",4.677 and 1.845 and 5.27 and 1.647 and 4.348 and 5.599
same,Cell viability (MTS assay),"SK-HEP-1 cells [2]; compound concentration 3.125, 2 hours, then 25 μM H2O2 24 hours",26.8116 and 19.5 and 35.84 and 30.5 and 35.24 and 33
same,Protection of Jurkat cells from death,Jurkat (T-cells),"more effective at protecting these cells from death than NAC, CN Cbl or folate"
same,Protection against apoptosis induced by homocysteine,SK-HEP-1 cells [3],total protection
same,t1/2,[4],No decomposition within 20 hours
same,Difference between protection by NACCbl and by GSCbl,SK-HEP-1 cells [5]; 25 μM H2O2 24 hours,no difference
same,Concentration required to achieve >80% survival,SK-HEP-1 cells [5]; [7],100 µM
same,Preincubation concentration that protected cells from H2O2-induced cell death,SK-HEP-1 cells [5]; [7],≥ 2.0 µM
same,Cell viability (MTS assay),"SK-HEP-1 cells [5]; compound 30 μM two hours, then H2O2 200 μM a further two hours",5.2108 and 7.153 and 1.99 and 0.6632
same,Cell viability (MTS assay),"SK-HEP-1 cells [5]; compound concentration 6.25, 2 hours, then 25 μM H2O2 24 hours",42.8195 and 42.09 and 39.39 and 30.9 and 28 and 38.4058
same,Cell viability (MTS assay),"SK-HEP-1 cells [5]; compound concentration 12.5, 2 hours, then 25 μM H2O2 24 hours",45.26 and 41.7 and 44.99 and 45.5863 and 42.23 and 47.36
same,Cell viability (MTS assay),"SK-HEP-1 cells [5]; compound concentration 25, 2 hours, then 25 μM H2O2 24 hours",46.9 and 46.77 and 45.26 and 42.69 and 45.72 and 48.16
same,Cell viability (MTS assay),"SK-HEP-1 cells [5]; compound concentration 100, 2 hours, then 25 μM H2O2 24 hours",61.5942 and 56.59 and 70.22 and 74.37 and 64.23 and 61.79
same,Cell viability (MTS assay),"SK-HEP-1 cells [5]; compound concentration 200, 2 hours, then 25 μM H2O2 24 hours",100.7246 and 99.7365 and 101.8445 and 107.3123 and 92.69 and 97.56
same,Survival,"SK-HEP-1 cells [6]; SK-HEP-1, 10 mM, 24 hours",over 60%
same,Cell viability by MTS assay (FIG. 13),"SK-HEP-1 cells [6]; compound conc. 0.61, 24 hours",2.572 and 2.498 and 2.473
same,Cell viability by MTS assay (FIG. 13),"SK-HEP-1 cells [6]; compound conc. 1.22, 24 hours",2.546 and 2.524 and 2.538
same,Cell viability by MTS assay (FIG. 13),"SK-HEP-1 cells [6]; compound conc. 2.441, 24 hours",2.592 and 2.536 and 2.499
same,Cell viability by MTS assay (FIG. 13),"SK-HEP-1 cells [6]; compound conc. 4.882, 24 hours",2.532 and 2.463 and 2.457
same,Cell viability by MTS assay (FIG. 13),"SK-HEP-1 cells [6]; compound conc. 9.765, 24 hours",2.505 and 2.474 and 2.514
same,Cell viability by MTS assay (FIG. 13),"SK-HEP-1 cells [6]; compound conc. 19.531, 24 hours",2.485 and 2.466 and 2.502
same,Cell viability by MTS assay (FIG. 13),"SK-HEP-1 cells [6]; compound conc. 39.062, 24 hours",2.503 and 2.474 and 2.453
same,Cell viability by MTS assay (FIG. 13),"SK-HEP-1 cells [6]; compound conc. 78.125, 24 hours",2.521 and 2.488 and 2.475
same,Cell viability by MTS assay (FIG. 13),"SK-HEP-1 cells [6]; compound conc. 156.25, 24 hours",2.484 and 2.42 and 2.492
same,Cell viability by MTS assay (FIG. 13),"SK-HEP-1 cells [6]; compound conc. 312.5, 24 hours",2.409 and 2.301 and 2.437
same,Cell viability by MTS assay (FIG. 13),"SK-HEP-1 cells [6]; compound conc. 625, 24 hours",2.358 and 2.242 and 2.347
same,Cell viability by MTS assay (FIG. 13),"SK-HEP-1 cells [6]; compound conc. 1250, 24 hours",2.2 and 2.055 and 2.3
same,Cell viability by MTS assay (FIG. 13),"SK-HEP-1 cells [6]; compound conc. 2500, 24 hours",1.989 and 1.891 and 2.085
same,Cell viability by MTS assay (FIG. 13),"SK-HEP-1 cells [6]; compound conc. 5000, 24 hours",2.081 and 2.003 and 2.004
same,Cell viability by MTS assay (FIG. 13),"SK-HEP-1 cells [6]; compound conc. 10000, 24 hours",1.908 and 1.82 and 1.732
same,Hsp32 gene expression,Hsp32,induced
same,Protection of U937 cells from death,U937 (monocytes),"more effective at protecting these cells from death than NAC, CN Cbl or folate"
